Laboratory results from publication PMC11807725, “Screening and Antioxidant Activities Evaluation of Peptides From Abalone (Haliotis discus hannai Ino)” (Food Science & Nutrition, 2025).
Peptide text beside a SMILES is read from it.

Legend:
Format in all cases: cell-based, human
HUVECs [1] = test: Cytotoxicity testing of peptides in HUVECs (CCK-8); settings: for cytotoxicity to HUVECs (in words) / effect on HUVEC growth (in words) / toxicity to HUVECs (in words): 24 h, CCK-8; for effect on HUVEC growth (in words): within 3.9–1000 μg/mL; for toxicity to HUVECs (in words): concentration range 3.9–1000 μg/mL; for effect on HUVEC viability (in words): vs control p < 0.01
Procedure: Peptide cytotoxicity in HUVECs was assessed using the CCK‐8 assay to determine cell viability (Suo et al. [2022]). HUVECs were digested with 0.25% trypsin, resuspended in RPMI 1640 complete medium containing 10% FBS at a density of 5 × 10^4 cells/mL, and seeded into 96‐well plates at 100 μL/well. Cells were incubated in a CO2 incubator (37°C, 5% CO2) for 12 h.
Control and experimental groups were established with six replicates each. After cell adhesion, 10 μL of peptide solution was added to the experimental groups at final concentrations of 3.9, 7.8, 15.6, 31.25, 62.5, 125, 250, 500, and 1000 μg/mL, whereas the control group received an equivalent volume of complete medium. After 24 h of incubation in the CO2 incubator, 10 μL of CCK‐8 solution was added to each well, and cells were incubated for 1 h. Optical density (OD) was measured at 450 nm using an Infinite M1000 Pro microplate reader (Tecan, Switzerland). Cell viability was calculated using the following formula: Cell Viability%=AS−AO/AC−AO×100% where A C represents the OD of the control group, A S indicates the OD of the experimental group, and A O is the OD of the blank wells.

HUVECs damaged by AAPH [2] = settings: at different concentrations, 6 mmol/L AAPH model, p > 0.05
Procedure: The experiment included control, model, and experimental groups. HUVECs were seeded into 96‐well plates at a density of 5 × 10^4 cells/mL at 100 μL per well, with six replicates per group. After cell adhesion, the model and experimental groups were treated with 10 μL of AAPH solution to a final concentration of 6 mmol/L, whereas the control group received an equivalent volume of medium. After 24 h, the experimental groups were treated with 10 μL of peptide solutions to final concentrations of 3.9, 7.8, 15.6, 31.25, 62.5, 125, 250, 500, and 1000 μg/mL. The control and model groups received an equivalent volume of medium.

HUVECs damaged by AAPH [3] = test: SOD activity in AAPH-damaged HUVECs; settings: 250, 500, and 1000 μg/mL, 24 h after 6 mmol/L AAPH 24 h; p < 0.05; three replicates
Procedure: (§1) The model and experimental groups were established, and HUVECs were seeded into 6-well plates at a density of 5 × 10^4 cells/mL at 2 mL/well, with three replicates per group. After cell adhesion, the model and experimental groups were treated with 2 mL of AAPH solution at a final concentration of 6 mmol/L, whereas the control group received an equivalent volume of the medium. After 24 h of incubation, experimental groups were treated with 200 μL of peptide […] at a final concentration of 250, 500, and 1000 μg/mL. The control and model groups received an equivalent volume of the medium. After 24 h incubation, the cells were collected, and the protein content was measured using the BCA protein assay kit. The activities of SOD, CAT, and GSH were determined using the respective assay kits.

HUVECs damaged by AAPH [4] = test: GSH content in AAPH-damaged HUVECs; settings: 250, 500, and 1000 μg/mL, 24 h after 6 mmol/L AAPH 24 h; p < 0.05; three replicates
Procedure: as §1

HUVECs damaged by AAPH [5] = test: CAT activity in AAPH-damaged HUVECs; settings: 250, 500, and 1000 μg/mL, 24 h after 6 mmol/L AAPH 24 h; p < 0.05; three replicates
Procedure: as §1

HUVECs damaged by AAPH [6] = test: ROS levels in AAPH-damaged HUVECs (DCFH-DA); settings: 24 h after 6 mmol/L AAPH 24 h, DCFH-DA fluorescence
Procedure: Model and experimental groups were established, and HUVECs were seeded into 96-well plates at a density of 5 × 10^4 cells/mL at 100 μL/well, with six replicates per group. After cell adhesion, the control group received the medium, whereas the model and experimental groups were treated with 10 μL of AAPH solution to a final concentration of 6 mmol/L. After 24 h of incubation, experimental groups were treated with 10 μL of peptide […] at final concentrations of 250, 500, and 1000 μg/mL. The control and model groups received an equivalent volume of the medium. After another 24 h of incubation, ROS levels were measured according to the instructions of the ROS detection kit. Cells were washed twice with PBS, treated with 10 μL of 10 μmol/L DCFH-DA working solution, and incubated in the dark for 30 min in the CO2 incubator (37°C, 5% CO2). The cells were then washed three times with PBS, and the fluorescence intensity was measured using an Infinite […] microplate reader (Tecan, Switzerland).

HUVECs [7] = test: Establishment of the AAPH-induced HUVEC oxidative damage model (CCK-8 viability); settings: 24 h; for cell survival rate: CCK-8
Procedure: The oxidative damage model was established using the method described by Li et al. ([2023]). HUVECs were seeded into 96‐well plates at a density of 5 × 10^4 cells/mL at 100 μL/well and incubated in a CO2 incubator (37°C, 5% CO2) for 12 h.

[8] = concentrations of 3.9–500 μg/mL

Structure (SMILES): CC[C@H](C)[C@H](NC(=O)[C@H](Cc1c[nH]cn1)NC(=O)CNC(=O)[C@@H](N)Cc1ccccc1)C(=O)N[C@@H](CO)C(=O)N[C@H](C(=O)O)C(C)C [FGHISV] (H-FGHISV-OH; N-terminus and C-terminus assumed)
- cytotoxicity to HUVECs (in words) (HUVECs [1]; [8]): no cytotoxicity
- cell viability compared with the model group (in words) (HUVECs damaged by AAPH [2]): did not show significant differences

Structure (SMILES): N[C@@H](CCC(=O)O)C(=O)N[C@@H](CC(=O)O)C(=O)N[C@@H](CCC(=O)O)C(=O)O [EDE] (H-Glu-Asp-Glu-OH; N-terminus and C-terminus assumed)
- effect on HUVEC growth (in words) (HUVECs [1]): promoted cell growth
- cell viability compared with the model group (in words) (HUVECs damaged by AAPH [2]): did not show significant differences

Structure (SMILES): CSCC[C@H](NC(=O)[C@H](Cc1ccc(O)cc1)NC(=O)CNC(=O)[C@H](CCSC)NC(=O)[C@@H](NC(=O)[C@H](CO)NC(=O)[C@@H](NC(=O)[C@@H](N)CC(=O)O)[C@@H](C)O)[C@@H](C)O)C(=O)N[C@@H](C)C(=O)N[C@@H](C)C(=O)N[C@@H](CCCCN)C(=O)O [DTSTMGYMAAK] (H-DTSTMGYMAAK-OH; N-terminus and C-terminus assumed)
- toxicity to HUVECs (in words) (HUVECs [1]): no toxicity
- cell viability compared with the model group (in words) (HUVECs damaged by AAPH [2]): did not show significant differences

Structure (SMILES): C[C@H](NC(=O)[C@@H](N)CC(=O)O)C(=O)N[C@@H](CO)C(=O)N[C@@H](CS)C(=O)N[C@@H](CCCCN)C(=O)O [DASCK] (H-DASCK-OH; N-terminus and C-terminus assumed)
- toxicity to HUVECs (in words) (HUVECs [1]): no toxicity
- effect on HUVEC growth (in words) (HUVECs [1]): promoted cell growth

Structure (SMILES): CC[C@H](C)[C@H](NC(=O)[C@H](CC(=O)O)NC(=O)[C@@H](N)CC(=O)O)C(=O)N[C@@H](CCSC)C(=O)N[C@@H](CCC(=O)O)C(=O)N[C@@H](CC(=O)O)C(=O)N[C@@H](CCCCN)C(=O)N[C@@H](CC(=O)O)C(=O)N[C@@H](CC(N)=O)C(=O)N[C@@H](Cc1ccccc1)C(=O)O [DDIMEDKDNF] (H-DDIMEDKDNF-OH; N-terminus and C-terminus assumed)
- cytotoxicity to HUVECs (in words) (HUVECs [1]; 3.9–250 μg/mL): nontoxic

Structure (SMILES): NCCCC[C@H](NC(=O)[C@H](CC(=O)O)NC(=O)[C@H](CCC(=O)O)NC(=O)[C@H](CC(=O)O)NC(=O)[C@H](CCC(=O)O)NC(=O)[C@H](CC(=O)O)NC(=O)[C@H](CCC(=O)O)NC(=O)[C@@H](N)CC(=O)O)C(=O)O [DEDEDEDK] (H-DEDEDEDK-OH; N-terminus and C-terminus assumed)
- SOD activity in the cells vs model group (in words) (HUVECs damaged by AAPH [3]): increased significantly
- GSH content in the cells vs model group (in words) (HUVECs damaged by AAPH [4]): significantly increased
- effect on HUVEC growth (in words) (HUVECs [1]): promoted cell growth
- CAT activity in the cells vs model group (in words) (HUVECs damaged by AAPH [5]): increased significantly
- ROS content compared with the model group (in words) (HUVECs damaged by AAPH [6]; DEDEDEDK 1000 μg/mL, p < 0.05): significantly reduced
- ROS levels compared with the model group (in words) (HUVECs damaged by AAPH [6]; DEDEDEDK 250 and 500 μg/mL, p > 0.05): no significant change

Structure (SMILES): CC(C)[C@H](NC(=O)[C@H](C)N)C(=O)N[C@H](C(=O)N[C@@H](CCC(=O)O)C(=O)N[C@@H](CO)C(=O)N[C@@H](CCCCN)C(=O)O)C(C)C [AVVESK] (H-AVVESK-OH; N-terminus and C-terminus assumed)
- cytotoxicity to HUVECs (in words) (HUVECs [1]; [8]): no cytotoxicity

Structure (SMILES): CC(C)(N=NC(C)(C)C(=N)N)C(=N)N.Cl.Cl [AAPH, 2,2′‐azobis(2‐methylpropionamidine) dihydrochloride]
- cell survival rate (HUVECs [7]; AAPH 4 mmol/L): 92.64% ± 0.06%
- cell survival rate (HUVECs [7]; AAPH 6 mmol/L): 87.35% ± 0.05%
- cell survival rate (HUVECs [7]; AAPH 8 mmol/L): 78.64% ± 0.03%
- cell survival rate (HUVECs [7]; AAPH 10 mmol/L): 43.10% ± 0.04%
- cell survival rate (HUVECs [7]; AAPH 12 mmol/L): 5.07% ± 0.01%
- cell viability (HUVECs [7]; AAPH 0.25, 0.5, 1, and 2 mmol/L, significantly higher than control (p < 0.01)): > 100%

Structure (SMILES): CC(C)[C@H](NC(=O)[C@H](CCC(=O)O)NC(=O)[C@H](CCC(=O)O)NC(=O)[C@@H](NC(=O)[C@@H](NC(=O)[C@H](CCC(=O)O)NC(=O)[C@@H]1CCCN1C(=O)[C@H](CCC(=O)O)NC(=O)[C@@H](N)Cc1ccccc1)[C@@H](C)O)[C@@H](C)O)C(=O)N[C@@H](CCCNC(=N)N)C(=O)O [FEPETTEEVR] (H-FEPETTEEVR-OH; N-terminus and C-terminus assumed)
- toxicity to HUVECs (in words) (HUVECs [1]): no toxicity
- effect on HUVEC growth (in words) (HUVECs [1]): promoted cell growth

Structure (SMILES): CC[C@H](C)[C@H](NC(=O)[C@H](CCC(=O)O)NC(=O)[C@H](CCSC)NC(=O)[C@@H]1CCCN1C(=O)[C@@H](NC(=O)[C@H](Cc1c[nH]cn1)NC(=O)[C@H](CC(N)=O)NC(=O)[C@H](CO)NC(=O)[C@H](CCC(N)=O)NC(=O)[C@H](CO)NC(=O)[C@@H](NC(=O)[C@H](Cc1c[nH]c2ccccc12)NC(=O)[C@@H](NC(=O)[C@@H](N)Cc1ccccc1)[C@@H](C)O)C(C)C)[C@@H](C)CC)C(=O)N[C@@H](CCC(=O)O)C(=O)N[C@@H](CCC(=O)O)C(=O)N[C@@H](CC(=O)O)C(=O)N[C@@H](CO)C(=O)N[C@@H](C)C(=O)N[C@@H](CCCCN)C(=O)N1CCC[C@H]1C(=O)N[C@@H](Cc1c[nH]c2ccccc12)C(=O)N[C@@H](CC(C)C)C(=O)O (H-FTWVSQSNHIPMEIEEDSAKPWL-OH; N-terminus and C-terminus assumed)
- effect on HUVEC viability (in words) (HUVECs [1]; 31.25–1000 μg/mL): clear inhibitory effect

Structure (SMILES): NCC(=O)N[C@@H](CCC(=O)O)C(=O)N[C@@H](Cc1ccc(O)cc1)C(=O)N[C@@H](CCC(N)=O)C(=O)O [GEYQ] (H-GEYQ-OH; N-terminus and C-terminus assumed)
- effect on HUVEC viability (in words) (HUVECs [1]; 3.9–62.5 μg/mL): clear inhibitory effect
